Data from ChEMBL document CHEMBL1133215, “Natural and synthetic analogues of actinomycin D as Grb2-SH2 domain blockers” (Bioorg Med Chem Lett, 2000).
pIC50: −log10 of the molar value. Calls of active or inactive are those of the source. The calls are words filed in the database; no cut-off is given here. Numbered stars: 1 amine (or outer) side, 2 acyl side, 3 side chain; on linkers, the order of the positions; unused ones are H or OH. Bridge positions count the residues as written; N and C are the ends. Square brackets hold non-standard residues; d marks the D form. Peptide text beside a SMILES is read from it. I, II: the chains in the order shown. Actinocin(1to9) = Cc1c2oc3c(C)ccc(C(=O)[*:2])c3nc-2c(C(=O)[*:1])c(N)c1=O; NMeV = CN[C@H](C(=O)O)C(C)C; Sar = CNCC(=O)O

Tests used:
[1] = molecular target: Growth factor receptor-bound protein 2 (Mus musculus) (UniProt Q60631); assay: In vitro inhibitory activity against Shc/Grb2 interactions in B104-1-1 cells at 2 uM; format: functional, cell-based
[2] = molecular target: Growth factor receptor-bound protein 2 (Mus musculus) (UniProt Q60631); assay: In vitro inhibitory activity against Shc/Grb2 interactions in B104-1-1 cells at 5 uM; format: functional, cell-based
[3] = molecular target: Growth factor receptor-bound protein 2 (Mus musculus, UniProt Q60631); assay: In vitro binding assay of Shc-derived phosphopeptide to Growth factor receptor bound protein 2 SH2 in B104-1-1 cells was determined; format: cell-based
B104 [4] = assay: Growth inhibitory activity was tested against B104-1-1 cells; format: functional, Mus musculus
B104 [5] = assay: Growth inhibitory activity against B104-1-1 cells; Not active; format: functional, cell-based; details: Mus musculus

Growth factor receptor-bound protein 2, sequence (Q60631 whole entry): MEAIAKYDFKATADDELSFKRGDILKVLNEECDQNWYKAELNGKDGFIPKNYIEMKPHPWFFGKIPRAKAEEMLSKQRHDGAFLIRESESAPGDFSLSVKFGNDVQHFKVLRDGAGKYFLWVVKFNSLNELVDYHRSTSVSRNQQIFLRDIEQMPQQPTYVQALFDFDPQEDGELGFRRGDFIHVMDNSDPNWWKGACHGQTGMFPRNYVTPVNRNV
Growth factor receptor-bound protein 2 (Mus musculus), sequence (Q60631 whole entry): as above

SMILES | inhibition [1] | inhibition [2] | pIC50 [3] | GI50 (B104 [4]) | GI50 (B104 [5])
COc1ccc(C[C@@H]2NC(=O)CN(C)C(=O)[C@@H]3CCCN3C(=O)[C@@H](C(C)C)NC(=O)[C@@H](NC(=O)c3c4nc5c(C(=O)N[C@@H]6C(=O)N[C@H](C(C)C)C(=O)N7CCC[C@H]7C(=O)N(C)CC(=O)N[C@@H](Cc7ccc(OC)cc7)C(=O)O[C@@H]6C)ccc(C)c5oc-4c(C)c(=O)c3N)[C@@H](C)OC2=O)cc1 | 55.1% | 73.8% | 5.70 |  | 
Cc1c2oc3c(C)ccc(C(=O)N[C@@H]4C(=O)N[C@H](Cc5ccc(O)cc5)C(=O)N5CCC[C@H]5C(=O)N(C)CC(=O)N[C@@H](C(C)C)C(=O)O[C@@H]4C)c3nc-2c(C(=O)N[C@@H]2C(=O)N[C@H](Cc3ccc(O)cc3)C(=O)N3CCC[C@H]3C(=O)N(C)CC(=O)N[C@@H](C(C)C)C(=O)O[C@@H]2C)c(N)c1=O (stereo in doubt; 7) [listing 1 of 2 here] |  |  | 5.35 |  | 
Cc1c2oc3c(C)ccc(C(=O)N[C@@H]4C(=O)N[C@H](C(C)C)C(=O)N5CCC[C@H]5C(=O)N(C)CC(=O)N[C@H](Cc5ccc(O)cc5)C(=O)O[C@@H]4C)c3nc-2c(C(=O)N[C@@H]2C(=O)N[C@H](C(C)C)C(=O)N3CCC[C@H]3C(=O)N(C)CC(=O)N[C@H](Cc3ccc(O)cc3)C(=O)O[C@@H]2C)c(N)c1=O (stereo in doubt; 12) [listing 1 of 2 here] |  |  | 6.10 |  | 
Cc1c2oc3c(C)ccc(C(=O)N[C@@H]4C(=O)N[C@H](Cc5ccc(O)cc5)C(=O)N5CCC[C@H]5C(=O)N(C)CC(=O)N[C@@H](C(C)C)C(=O)O[C@@H]4C)c3nc-2c(C(=O)N[C@@H]2C(=O)N[C@H](Cc3ccc(O)cc3)C(=O)N3CCC[C@H]3C(=O)N(C)CC(=O)N[C@@H](C(C)C)C(=O)O[C@@H]2C)c(N)c1=O (stereo in doubt; 1) [listing 1 of 2 here] |  |  | 6.30 |  | 
Cc1c2oc3c(C)ccc(C(=O)N[C@@H]4C(=O)N[C@H](C(C)C)C(=O)N5CCC[C@H]5C(=O)N(C)CC(=O)N[C@@H](Cc5ccc(O)cc5)C(=O)O[C@@H]4C)c3nc-2c(C(=O)N[C@@H]2C(=O)N[C@H](C(C)C)C(=O)N3CCC[C@H]3C(=O)N(C)CC(=O)N[C@@H](Cc3ccc(O)cc3)C(=O)O[C@@H]2C)c(N)c1=O (stereo in doubt; 10) [listing 1 of 2 here] |  |  | 6.10 |  | 
COc1ccc(C[C@H]2NC(=O)[C@@H](NC(=O)c3c4nc5c(C(=O)N[C@@H]6C(=O)N[C@H](Cc7ccc(OC)cc7)C(=O)N7CCC[C@H]7C(=O)N(C)CC(=O)N[C@@H](C(C)C)C(=O)O[C@@H]6C)ccc(C)c5oc-4c(C)c(=O)c3N)[C@@H](C)OC(=O)[C@H](C(C)C)NC(=O)CN(C)C(=O)[C@@H]3CCCN3C2=O)cc1 | 69.7% | 80.6% | 5.82 | 10 nM | 
COc1ccc(C[C@H]2NC(=O)CN(C)C(=O)[C@@H]3CCCN3C(=O)[C@@H](C(C)C)NC(=O)[C@@H](NC(=O)c3c4nc5c(C(=O)N[C@@H]6C(=O)N[C@H](C(C)C)C(=O)N7CCC[C@H]7C(=O)N(C)CC(=O)N[C@H](Cc7ccc(OC)cc7)C(=O)O[C@@H]6C)ccc(C)c5oc-4c(C)c(=O)c3N)[C@@H](C)OC2=O)cc1 | 46.9% | 73% | 5.70 |  | 
Cc1c2oc3c(C)ccc(C(=O)N[C@@H]4C(=O)N[C@H](Cc5ccc(O)cc5)C(=O)N5CCC[C@H]5C(=O)N(C)CC(=O)N[C@@H](C(C)C)C(=O)O[C@@H]4C)c3nc-2c(C(=O)N[C@@H]2C(=O)N[C@H](Cc3ccc(O)cc3)C(=O)N3CCC[C@H]3C(=O)N(C)CC(=O)N[C@@H](C(C)C)C(=O)O[C@@H]2C)c(N)c1=O (stereo in doubt; 1) [listing 2 of 2 here] | 84.3% | 90.7% |  |  | inactive
Cc1c2oc3c(C)ccc(C(=O)N[C@@H]4C(=O)N[C@H](C(C)C)C(=O)N5CCC[C@H]5C(=O)N(C)CC(=O)N[C@H](Cc5ccc(O)cc5)C(=O)O[C@@H]4C)c3nc-2c(C(=O)N[C@@H]2C(=O)N[C@H](C(C)C)C(=O)N3CCC[C@H]3C(=O)N(C)CC(=O)N[C@H](Cc3ccc(O)cc3)C(=O)O[C@@H]2C)c(N)c1=O (stereo in doubt; 5) [listing 1 of 2 here] |  |  | < 5.00 |  | 
Cc1c2oc3c(C)ccc(C(=O)N[C@@H]4C(=O)N[C@H](C(C)C)C(=O)N5CCC[C@H]5C(=O)N(C)CC(=O)N[C@H](Cc5ccc(O)cc5)C(=O)O[C@@H]4C)c3nc-2c(C(=O)N[C@@H]2C(=O)N[C@H](C(C)C)C(=O)N3CCC[C@H]3C(=O)N(C)CC(=O)N[C@H](Cc3ccc(O)cc3)C(=O)O[C@@H]2C)c(N)c1=O (stereo in doubt; 5) [listing 2 of 2 here] | 3.5% | 27.4% |  |  | inactive

Second part, led by results:

inhibition [1] | inhibition [2] | pIC50 [3] | SMILES | GI50 (B104 [4]) | GI50 (B104 [5])
30.9% | 40.8% | 5.23 | CC[C@@H](C)[C@H]1NC(=O)[C@@H](NC(=O)c2c3nc4c(C(=O)N[C@@H]5C(=O)N[C@H]([C@H](C)CC)C(=O)N6CCC[C@H]6C(=O)N(C)CC(=O)N[C@@H](C(C)C)C(=O)O[C@@H]5C)ccc(C)c4oc-3c(C)c(=O)c2N)[C@@H](C)OC(=O)[C@H](C(C)C)NC(=O)CN(C)C(=O)[C@@H]2CCCN2C1=O | 0.8 nM | 
15.1% | 25.3% | 5.12 | CC[C@@H](C)[C@H]1NC(=O)CN(C)C(=O)[C@@H]2CCCN2C(=O)[C@@H]([C@H](C)CC)NC(=O)[C@@H](NC(=O)c2c3nc4c(C(=O)N[C@@H]5C(=O)N[C@H]([C@H](C)CC)C(=O)N6CCC[C@H]6C(=O)N(C)CC(=O)N[C@H]([C@H](C)CC)C(=O)O[C@@H]5C)ccc(C)c4oc-3c(C)c(=O)c2N)[C@@H](C)OC1=O | 1 nM | 
40.1% | 50.5% | 5.30 | Cc1c2oc3c(C)ccc(C(=O)N[C@@H]4C(=O)N[C@H](C(C)C)C(=O)N5CCC[C@H]5C(=O)N(C)CC(=O)N(C)[C@@H](C(C)C)C(=O)O[C@@H]4C)c3nc-2c(C(=O)N[C@@H]2C(=O)N[C@H](C(C)C)C(=O)N3CCC[C@H]3C(=O)N(C)CC(=O)N(C)[C@@H](C(C)C)C(=O)O[C@@H]2C)c(N)c1=O [DACTINOMYCIN] (I: T[dV]P[Sar][NMeV] / II: T[dV]P[Sar][NMeV]; ester I:1-I:C, II:1-II:C; linker I:N-II:N via Actinocin(1to9)) | 0.7 nM | 
73.6% | 82.8% | 5.92 | Cc1c2oc3c(C)ccc(C(=O)N[C@@H]4C(=O)N[C@H](Cc5ccccc5)C(=O)N5CCC[C@H]5C(=O)N(C)CC(=O)N[C@@H](C(C)C)C(=O)O[C@@H]4C)c3nc-2c(C(=O)N[C@@H]2C(=O)N[C@H](Cc3ccccc3)C(=O)N3CCC[C@H]3C(=O)N(C)CC(=O)N[C@@H](C(C)C)C(=O)O[C@@H]2C)c(N)c1=O | 8 nM | 
15.9% | 28.5% |  | Cc1c2oc3c(C)ccc(C(=O)N[C@@H]4C(=O)N[C@H](C(C)C)C(=O)N5CCC[C@H]5C(=O)N(C)CC(=O)N[C@@H](Cc5ccc(O)cc5)C(=O)O[C@@H]4C)c3nc-2c(C(=O)N[C@@H]2C(=O)N[C@H](C(C)C)C(=O)N3CCC[C@H]3C(=O)N(C)CC(=O)N[C@@H](Cc3ccc(O)cc3)C(=O)O[C@@H]2C)c(N)c1=O (stereo in doubt; 8) [listing 1 of 2 here] |  | 
75.1% | 87.7% | 6.05 | Cc1c2oc3c(C)ccc(C(=O)N[C@@H]4C(=O)N[C@H](C(C)C)C(=O)N5CCC[C@H]5C(=O)N(C)CC(=O)N[C@H](Cc5ccccc5)C(=O)O[C@@H]4C)c3nc-2c(C(=O)N[C@@H]2C(=O)N[C@H](C(C)C)C(=O)N3CCC[C@H]3C(=O)N(C)CC(=O)N[C@H](Cc3ccccc3)C(=O)O[C@@H]2C)c(N)c1=O | 3 nM | 
72% | 86% | 6.00 | Cc1c2oc3c(C)ccc(C(=O)N[C@@H]4C(=O)N[C@H](C(C)C)C(=O)N5CCC[C@H]5C(=O)N(C)CC(=O)N[C@H](C(C)C)C(=O)O[C@@H]4C)c3nc-2c(C(=O)N[C@@H]2C(=O)N[C@H](C(C)C)C(=O)N3CCC[C@H]3C(=O)N(C)CC(=O)N[C@H](C(C)C)C(=O)O[C@@H]2C)c(N)c1=O | 3 nM | 
 |  | < 5.00 | Cc1c2oc3c(C)ccc(C(=O)N[C@@H]4C(=O)N[C@H](C(C)C)C(=O)N5CCC[C@H]5C(=O)N(C)CC(=O)N[C@@H](Cc5ccc(O)cc5)C(=O)O[C@@H]4C)c3nc-2c(C(=O)N[C@@H]2C(=O)N[C@H](C(C)C)C(=O)N3CCC[C@H]3C(=O)N(C)CC(=O)N[C@@H](Cc3ccc(O)cc3)C(=O)O[C@@H]2C)c(N)c1=O (stereo in doubt; 8) [listing 2 of 2 here] |  | 
79.9% | 90.2% |  | Cc1c2oc3c(C)ccc(C(=O)N[C@@H]4C(=O)N[C@H](C(C)C)C(=O)N5CCC[C@H]5C(=O)N(C)CC(=O)N[C@H](Cc5ccc(O)cc5)C(=O)O[C@@H]4C)c3nc-2c(C(=O)N[C@@H]2C(=O)N[C@H](C(C)C)C(=O)N3CCC[C@H]3C(=O)N(C)CC(=O)N[C@H](Cc3ccc(O)cc3)C(=O)O[C@@H]2C)c(N)c1=O (stereo in doubt; 12) [listing 2 of 2 here] |  | 
75.9% | 89.7% |  | Cc1c2oc3c(C)ccc(C(=O)N[C@@H]4C(=O)N[C@H](C(C)C)C(=O)N5CCC[C@H]5C(=O)N(C)CC(=O)N[C@@H](Cc5ccc(O)cc5)C(=O)O[C@@H]4C)c3nc-2c(C(=O)N[C@@H]2C(=O)N[C@H](C(C)C)C(=O)N3CCC[C@H]3C(=O)N(C)CC(=O)N[C@@H](Cc3ccc(O)cc3)C(=O)O[C@@H]2C)c(N)c1=O (stereo in doubt; 10) [listing 2 of 2 here] |  | 
56.8% | 78.8% | 5.74 | Cc1c2oc3c(C)ccc(C(=O)N[C@@H]4C(=O)N[C@H](C(C)C)C(=O)N5CCC[C@H]5C(=O)N(C)CC(=O)N[C@@H](Cc5ccccc5)C(=O)O[C@@H]4C)c3nc-2c(C(=O)N[C@@H]2C(=O)N[C@H](C(C)C)C(=O)N3CCC[C@H]3C(=O)N(C)CC(=O)N[C@@H](Cc3ccccc3)C(=O)O[C@@H]2C)c(N)c1=O |  | 
42.9% | 56.6% |  | Cc1c2oc3c(C)ccc(C(=O)N[C@@H]4C(=O)N[C@H](Cc5ccc(O)cc5)C(=O)N5CCC[C@H]5C(=O)N(C)CC(=O)N[C@@H](C(C)C)C(=O)O[C@@H]4C)c3nc-2c(C(=O)N[C@@H]2C(=O)N[C@H](Cc3ccc(O)cc3)C(=O)N3CCC[C@H]3C(=O)N(C)CC(=O)N[C@@H](C(C)C)C(=O)O[C@@H]2C)c(N)c1=O (stereo in doubt; 7) [listing 2 of 2 here] |  | 
